Test results as given in PubChem BioAssay AID1845195 (Molecular Pharmacology Branch, DTP, NCI, 2023).

Tested on: 156681-154-R-J1 tumor spheroid viability
Experiment: Anticancer human tumor 156681-154-R-J1 patient-derived melanoma cell line growth inhibition
Conditions: spheroids with HUVEC and MSC; for IC50: curve of first compound; for viability, T/C: stronger effect = lower value
Procedure, shortened: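 Complex tumor spheroids combined malignant cells with endothelial cells and mesenchymal stem cells. DNA-damaging drugs and DNA repair inhibitors were tested alone and in combination, at half-log dilutions down from clinical Cmax (top 10 microM if Cmax unknown), 0.25% DMSO final.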
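Also: spheroids exposed to compounds for 7 days before readout.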
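For viability, T/C in this document: percent of vehicle control viability where 100% = DMSO-treated spheroids.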

Cc1sc2c(c1C)C(c1ccc(Cl)cc1)=NC(CC(=O)Nc1ccc(O)cc1)c1nnc(C)n1-2 (stereo not given) + COc1cc2c(cc1O)CCNC21CSC2c3c(OC(C)=O)c(C)c4c(c3C(COC1=O)N1C(O)C3Cc5cc(C)c(OC)c(O)c5C(C21)N3C)OCO4
IC50 (second compound 30 pM): > 3000 nM
IC50 (second compound 94.9 pM): 2030 nM
IC50 (second compound 0.0003 µM): 197 nM
IC50 (second compound 0.000949 µM): < 9.49 nM
IC50 (second compound 0.003 µM): < 9.49 nM
viability, T/C (second compound 30 pM, first compound 0.00949 µM): 104%
viability, T/C (second compound 30 pM, first compound 0.03 µM): 92.1%
viability, T/C (second compound 30 pM, first compound 0.0949 µM): 103%
viability, T/C (second compound 30 pM, first compound 0.3 µM): 109%
viability, T/C (second compound 30 pM, first compound 0.949 µM): 68.3%
viability, T/C (second compound 30 pM, first compound 3 µM): 61.8%
viability, T/C (second compound 94.9 pM, first compound 0.00949 µM): 108%
viability, T/C (second compound 94.9 pM, first compound 0.03 µM): 97.1%
viability, T/C (second compound 94.9 pM, first compound 0.0949 µM): 95.8%
viability, T/C (second compound 94.9 pM, first compound 0.3 µM): 85.5%
viability, T/C (second compound 94.9 pM, first compound 0.949 µM): 82.5%
viability, T/C (second compound 94.9 pM, first compound 3 µM): 34.7%
viability, T/C (second compound 0.0003 µM, first compound 0.00949 µM): 90.7%
viability, T/C (second compound 0.0003 µM, first compound 0.03 µM): 76.7%
viability, T/C (second compound 0.0003 µM, first compound 0.0949 µM): 64.9%
viability, T/C (second compound 0.0003 µM, first compound 0.3 µM): 45.2%
viability, T/C (second compound 0.0003 µM, first compound 0.949 µM): 15.7%
viability, T/C (second compound 0.0003 µM, first compound 3 µM): 9.14%
viability, T/C (second compound 0.000949 µM, first compound 0.00949 µM): 1.73%
viability, T/C (second compound 0.000949 µM, first compound 0.03 µM): 3.32%
viability, T/C (second compound 0.000949 µM, first compound 0.0949 µM): 2.97%
viability, T/C (second compound 0.000949 µM, first compound 0.3 µM): 1.78%
viability, T/C (second compound 0.000949 µM, first compound 0.949 µM): 0.17%
viability, T/C (second compound 0.000949 µM, first compound 3 µM): 0.15%
viability, T/C (second compound 0.003 µM, first compound 0.00949 µM): 0.14%
viability, T/C (second compound 0.003 µM, first compound 0.03 µM): 0.17%
viability, T/C (second compound 0.003 µM, first compound 0.0949 µM): 0.12%
viability, T/C (second compound 0.003 µM, first compound 0.3 µM): 0.12%
viability, T/C (second compound 0.003 µM, first compound 0.949 µM): 0.12%
viability, T/C (second compound 0.003 µM, first compound 3 µM): 0.21%

[2H]c1nc(C)nc([2H])c1-c1cc(NC[C@@H](C)c2cccc3c(C(=O)NC)ccnc23)ncn1 + CC[C@@]1(O)C(=O)OCc2c1cc1n(c2=O)Cc2cc3c(CN(C)C)c(O)ccc3nc2-1
IC50 (second compound 0.003 µM): > 10000 nM
IC50 (second compound 0.00949 µM): > 10000 nM
IC50 (second compound 0.03 µM): > 10000 nM
IC50 (second compound 0.0949 µM): < 31.6 nM
IC50 (second compound 0.3 µM): < 31.6 nM
viability, T/C (second compound 0.003 µM, first compound 0.0316 µM): 100%
viability, T/C (second compound 0.003 µM, first compound 0.1 µM): 132%
viability, T/C (second compound 0.003 µM, first compound 0.316 µM): 112%
viability, T/C (second compound 0.003 µM, first compound 1 µM): 92.2%
viability, T/C (second compound 0.003 µM, first compound 3.16 µM): 92.3%
viability, T/C (second compound 0.003 µM, first compound 10 µM): 78%
viability, T/C (second compound 0.00949 µM, first compound 0.0316 µM): 97.6%
viability, T/C (second compound 0.00949 µM, first compound 0.1 µM): 81.4%
viability, T/C (second compound 0.00949 µM, first compound 0.316 µM): 103%
viability, T/C (second compound 0.00949 µM, first compound 1 µM): 95.8%
viability, T/C (second compound 0.00949 µM, first compound 3.16 µM): 97.2%
viability, T/C (second compound 0.00949 µM, first compound 10 µM): 78.2%
viability, T/C (second compound 0.03 µM, first compound 0.0316 µM): 69.3%
viability, T/C (second compound 0.03 µM, first compound 0.1 µM): 72.3%
viability, T/C (second compound 0.03 µM, first compound 0.316 µM): 66.6%
viability, T/C (second compound 0.03 µM, first compound 1 µM): 65.6%
viability, T/C (second compound 0.03 µM, first compound 3.16 µM): 64.7%
viability, T/C (second compound 0.03 µM, first compound 10 µM): 76%
viability, T/C (second compound 0.0949 µM, first compound 0.0316 µM): 28.3%
viability, T/C (second compound 0.0949 µM, first compound 0.1 µM): 26.2%
viability, T/C (second compound 0.0949 µM, first compound 0.316 µM): 27.4%
viability, T/C (second compound 0.0949 µM, first compound 1 µM): 25%
viability, T/C (second compound 0.0949 µM, first compound 3.16 µM): 32.4%
viability, T/C (second compound 0.0949 µM, first compound 10 µM): 29.9%
viability, T/C (second compound 0.3 µM, first compound 0.0316 µM): 37.1%
viability, T/C (second compound 0.3 µM, first compound 0.1 µM): 32.6%
viability, T/C (second compound 0.3 µM, first compound 0.316 µM): 31.5%
viability, T/C (second compound 0.3 µM, first compound 1 µM): 40.6%
viability, T/C (second compound 0.3 µM, first compound 3.16 µM): 33.2%
viability, T/C (second compound 0.3 µM, first compound 10 µM): 36.4%
